Test system: PD patient
Test: EMG analysis during rest, postural and writing activity in the same subject before and after medication (monitoring of drug effectiveness)
Assay type: in vivo
Details: after meds
Text: Technology for detecting Parkinson's disease (PD) comprises of a group of indicators (endpoints) that are based on various Electromyography (EMG) properties of hand muscles during gesture writing as well as kinematics and pen traces. Gesture writing is the type of writing, when part of the time a pen is touching the tablet (writing activity) and part of the time a pen is not touching the tablet (postural activity). During postural period a hand is held against gravity. Postural EMG activity can be found programmatically by analyzing the writing activity, since it is known from the tablet recording when a pen was touching a tablet and not touching the tablet. In addition, EMG at rest is recorded, while both hands are lying on a table. The properties of resting EMG signals are also included in the analysis. Two differential channels of EMG are recorded from each hand. EMG recordings are synchronized with the input from the tablet PC.
In one example, 100 trials were administered. A beep sound denotes the end of one trial and beginning of the next trial. Writing activity was analyzed while a subject was writing a number “3” in cursive. The length of each trial was 5 sec. During “rest,” trials with a length of 5 sec each were generated. Postural trials were selected by a computer program. 100 trials for each type of activity were recorded. A large number of trials (around 100) is very important in the analysis, because muscle activity has high variability. A statistical ensemble is created in order for statistical analysis to be applied. A confidence interval was calculated to confirm the existence of peaks in Fast Fourier Transform (FFT).
Condition 1: Resting. The experimental session started with a recording where the participants were resting with both hands, forearms, and elbows on the table. During one continuous recording the experimenter triggered at least 25 trials of 5 seconds by touching the electronic pen on the tablet after each beep. In total 4 such files were recorded with 1-minute pauses in between, yielding 100 resting trials in total. During the pause the participants rested their hands on their knees.
Condition 2: Character-Writing and postural control of pen lift. After the resting session the participants were instructed to wait with the pen lifted while the entire forearm including elbow rested on the table. Upon hearing the beep participants were to touch the tablet with the pen and write character “3” as fast and convenient as possible and then lift the pen until the next beep. The next beep was automatically generated 4 seconds after the pen lift. As the participants were instructed to keep their forearms resting on the table the thumb muscles were optimally involved in producing character “3”. The non-writing arm rested on the table as in the resting condition. The writing segment was defined as the 5-second segment starting 2 seconds before the pen touched the writing surface till 3 seconds after that (See FIG. 3). We also defined a postural segment starting when the pen was lifted till the beep that was generated 4 seconds later. Thus each trial included a writing segment and a postural segment. The experimenter ensured that after the first trial at least 25 good trials were recorded. The experimenter ensured that at least 25 successful trials were recorded. This means that the subject had to write a complete character and only after that they lift up the pen and waited for a beep to start writing another character. All trials, including incidentally failed trials (except first and last one) were included in the analysis. After recording 25 acceptable trials, the participant was instructed to pause for 1 minute with both hands on the knees like in the resting condition. In total 4 files of 5 minutes were recorded yielding 100 trials.
Our Norconnect DH software (written in MATLAB, MathWorks, Natick, Mass., USA) processed the EMGs and handwriting kinematics to quantify 8 PD indicators (See Table 2). […]

[1] = EMG spectral peak, in 4 channels

With C#CCN[C@@H]1CCc2ccccc21 [Rosageline] the “Tremor, Postural” value [1] was “No (in 4”, the “Tremor, Rest” value [1] was “No (in 4” and the “Stiffness, spectral density maximum, Postural, ch3” value (ch3 left hand) was “ch.3: 2 mV”. The “Stiffness, spectral density maximum, Postural, ch4” value (ch4 left hand) was “ch4: 1.1 (mV)”, the “Weakness, mean intensity, Writing, ch1” value (criterion <0.005 mV^2, ch1) was “ch1: 0.003 mV^2” and the “Weakness, mean intensity, Writing, ch2” value (criterion <0.005 mV^2, ch2) was “ch2: 0.018 (mV^2)”. The “Stiffness, spectral density maximum, Rest, ch1” value (criterion >0.5 mV, ch1 right hand) was “ch1: 2 mV”, the “Stiffness, spectral density maximum, Rest, ch2” value (criterion >0.5 mV, ch2 right hand) was “ch2: 2.4 mV” and the “Stiffness, spectral density maximum, Rest, ch3” value (criterion >0.5 mV, ch3 left hand) was “ch3: 0.6 mV”. For the same compound, the “Stiffness, spectral density maximum, Rest, ch4” value (criterion >0.5 mV, ch4 left hand) was “ch4: 0.6 (mV)”, the “Stiffness, spectral density maximum, Postural, ch1” value (criterion >1 mV, ch1 right hand) was “ch1: 2 mV” and the “Stiffness, spectral density maximum, Postural, ch2” value (criterion >1 mV, ch2 right hand) was “ch2: 7.5 mV”.
